Test results reported in patent publication US7375168B2, “Protein compatible methods and compounds for controlling the morphology and shrinkage of silica derived from polyol-modified silanes” (McMaster University, priority 2002, dated 2008).
Like-named read-outs stand apart in the source and are kept apart here. Ends that are not written are not given here.

Assays:
[1] = target: T1, Src kinase, human recombinant (Homo sapiens, UniProt P12931); assay: Src PTK inhibition, free and entrapped in GLTES/DGS silica, TR-FRET detection of peptide phosphorylation; type: biochemical; conditions: substrate P1716, ATP as in FIG. 29
T1 construct: purchased Sigma-Aldrich (Oakville, ON) S5439; host or cells: insect cells

[2] = target: T2, dihydrofolate reductase (DHFR) (Escherichia coli, UniProt P0ABQ4); type: binding, E. coli; conditions: for elution time: 20 nM compounds, 100 nM fluorescein, 2 mM ammonium acetate; for elution / retention time: column with 50 pmol DHFR initial loading (FIG. 19 Panel B), compounds infused at 20 nM, fluorescein 100 nM
T2 construct: made in house

[3] = Src entrapped in GLTES/DGS derived silica, read-out: IC50 Entrapped in Silica
[4] = free Src in solution, read-out: IC50 Solution
[5] = FIG. 22 Panel A, column cut from one continuously filled capillary
[6] = FIG. 22 Panel B, second column from the same capillary

IC50 [1, 3] [µM] | IC50 [1, 4] [µM] | Compound | elution time [2, 5] [min] | elution time [2, 6] [min] | elution / retention time [2] [min]
0.6 to 0.8 | 0.5 to 0.7 | COc1cc2ncnc(Nc3ccc(Oc4ccccc4)cc3)c2cc1OC [Src Kinase Inhibitor I, 4-(4-phenoxyanilino)-6,7-dimethoxyquinazoline] | – | – | –
– | – | O=c1ccc2ccccc2o1 [coumarin] | 2.7 | 2.6 | 2
– | – | Nc1nc2ncc(CNc3ccc(C(=O)N[C@@H](CCC(=O)O)C(=O)O)cc3)nc2c(=O)[nH]1 [folic acid] | 8.9 | 8.4 | 7
1000 to 1400 | 800 to 1200 | YIYGSFK [YIYGSFK] | – | – | –
